Data on 3 molecules can be found in ChEMBL document CHEMBL4673322, “Discovery and optimization of a potent and selective indazolamine series of IRAK4 inhibitors” (Bioorg Med Chem Lett, 2021).

Converted amounts (≈) assume the structure as drawn.

Series [1] is described as follows: AUC (0 to 24 hrs) in monkey at 2 mg/kg, po. In kind it is ADME, organism-based, Macaca mulatta. Details: time < 24 hr, route oral, dose 2 mg/kg. As to conditions: rhesus monkey, in vivo.
Series [2] can be described thus: Oral bioavailability in monkey at 2 mg/kg. In kind it is ADME, organism-based, Macaca mulatta. The following applies: rhesus monkey, in vivo.
Series [3] is described as follows: AUC (0 to 24 hrs) in monkey at 0.5 mg/kg, iv. In kind it is ADME, organism-based, Macaca mulatta. Details: time < 24 hr, route intravenous, dose 0.5 mg/kg. The following applies: rhesus monkey, in vivo.
Series [4] can be described thus: Half life in monkey at 2 mg/kg, po. The following applies: rhesus monkey, in vivo. In kind it is ADME, organism-based, Macaca mulatta.
Series [5] can be described thus: Volume of distribution at steady state in monkey at 0.5 mg/kg, iv. In kind it is ADME, organism-based, Macaca mulatta. The following applies: rhesus monkey, in vivo, read-out: Vdss.
Series [6] in a line: Half life in monkey at 0.5 mg/kg, iv. In kind it is ADME, organism-based, Macaca mulatta. The following applies: rhesus monkey, in vivo.
Series [7] is described as follows: Clearance in monkey at 0.5 mg/kg, iv. In kind it is ADME, organism-based, Macaca mulatta. As to conditions: rhesus monkey, in vivo.
Series [8] in a line: Oral bioavailability in dog at 2 mg/kg. In kind it is ADME, organism-based, Canis lupus familiaris. As to conditions: in vivo.
Series [9] is described as follows: Half life in dog at 2 mg/kg, po. The following applies: in vivo. In kind it is ADME, organism-based, Canis lupus familiaris.
A short description of series [10]: AUC (0 to 24 hrs) in dog at 2 mg/kg, po. The following applies: in vivo. Details: time < 24 hr, route oral, dose 2 mg/kg. In kind it is ADME, organism-based, Canis lupus familiaris.
Series [11] in a line: AUC (0 to 24 hrs) in dog at 0.5 mg/kg, iv. In kind it is ADME, organism-based, Canis lupus familiaris. Further details: time < 24 hr, route intravenous, dose 0.5 mg/kg. The following applies: in vivo.
Series [12] in a line: Clearance in dog at 0.5 mg/kg, iv. In kind it is ADME, organism-based, Canis lupus familiaris. As to conditions: in vivo.
Series [13] can be described thus: Volume of distribution at steady state in dog at 0.5 mg/kg, iv. In kind it is ADME, organism-based, Canis lupus familiaris. The following applies: in vivo, read-out: Vdss.
Series [14] can be described thus: Oral bioavailability in mouse at 2 mg/kg. In kind it is ADME, organism-based. As to conditions: in vivo.
Series [15] can be described thus: Half life in dog at 0.5 mg/kg, iv. In kind it is ADME, organism-based, Canis lupus familiaris. The following applies: in vivo.
Series [16] can be described thus: AUC(0 to 24 hrs) in mouse at 2 mg/kg, po. As to conditions: in vivo. In kind it is ADME, organism-based. Further details: time < 24 hr, route oral, dose 2 mg/kg.
Series [17] is described as follows: Volume of distribution at steady state in mouse at 1 mg/kg, iv. In kind it is ADME, organism-based. The following applies: in vivo, read-out: Vdss.
Series [18] is described as follows: AUC(0 to 24 hrs) in mouse at 1 mg/kg, iv. In kind it is ADME, organism-based. The following applies: in vivo. Further details: time < 24 hr, route intravenous, dose 1 mg/kg.
A short description of series [19]: Half life in mouse at 1 mg/kg, iv. In kind it is ADME, organism-based. As to conditions: in vivo.
Series [20] is described as follows: Clearance in mouse at 1 mg/kg, iv. In kind it is ADME, organism-based. The following applies: in vivo.
A short description of series [21]: Metabolic stability in human Hepatocyte assessed as half life. As to conditions: hepatocytes. In kind it is ADME, tissue-based.
A short description of series [22]: Protein binding in human plasma. In kind it is ADME, cell-free. The following applies: read-out: PPB (converted).
A short description of series [23]: Apparent permeability across apical to basolateral side. In kind it is ADME. The following applies: not told.
Series [24] in a line: Apparent permeability across basolateral to apical side. As to conditions: not told. In kind it is ADME.
A short description of series [25]: Metabolic stability in dog liver microsomes assessed as intrinsic clearance. In kind it is ADME, Canis lupus familiaris, Microsome. The following applies: read-out: CLH.
Series [26] in a line: Metabolic stability in monkey liver microsomes assessed as intrinsic clearance. In kind it is ADME, Macaca mulatta, Microsome. As to conditions: rhesus monkey, read-out: CLH. On the technique in general: Liver microsomes are vesicles of endoplasmic reticulum, rich in cytochrome P450 enzymes.
Series [27] in a line: Metabolic stability in mouse liver microsomes assessed as intrinsic clearance. As to conditions: read-out: CLH. In kind it is ADME, Microsome.
Series [28] in a line: Metabolic stability in rat liver microsomes assessed as intrinsic clearance. In kind it is ADME, Microsome. As to conditions: read-out: CLH.
Series [29] in a line: Metabolic stability in human liver microsomes assessed as intrinsic clearance. In kind it is ADME, Microsome. As to conditions: read-out: CLH.
Series [30] is described as follows: Half life in Sprague-Dawley rat at 10 mg/kg, po. In kind it is ADME, organism-based. As to conditions: in vivo.
Series [31] in a line: AUC (0 to 24 hrs) in Sprague-Dawley rat at 10 mg/kg, po. In kind it is ADME, organism-based. Details: time < 24 hr, route oral, dose 10 mg/kg. As to conditions: in vivo.
The nature of series [32]: Cmax in Sprague-Dawley rat at 10 mg/kg, po. In kind it is ADME, organism-based. Details: route oral, dose 10 mg/kg. As to conditions: in vivo.
A short description of the next series: in vivo. The following applies: Sprague-Dawley, rat, iv, 1 mg/kg.
A short description of a further series: physchem. As to conditions: FaSSIF, pH 6.5.
A short description of series [33]: Half life in Sprague-Dawley rat at 5 mg/kg, po. In kind it is ADME, organism-based. The following applies: in vivo.
The nature of series [34]: Oral bioavailability in Sprague-Dawley rat at 5 mg/kg. The following applies: in vivo. In kind it is ADME, organism-based.
A short description of series [35]: Cmax in Sprague-Dawley rat at 5 mg/kg, po. In kind it is ADME, organism-based. Details: route oral, dose 5 mg/kg. As to conditions: in vivo.
Series [36] is described as follows: AUC in Sprague-Dawley rat at 5 mg/kg, po. In kind it is ADME, organism-based. Details: dose 5 mg/kg. The following applies: in vivo.

What is called AUC(0-t) is the area under the concentration-time curve up to a stated or last time point. A word on the bioavailability: it is dose-corrected exposure relative to a reference, in per cent. The term half-life denotes the time needed for the level to fall by half in the phase considered. The term clearance denotes a measure of how efficiently the substance is removed, as volume per time. As a reminder, the Papp A→B is how fast a substance crosses the layer from the apical side. The term Papp B→A denotes how fast a substance crosses the layer from the basolateral side. The term Cmax denotes the maximum level reached in the sampled fluid or tissue. One may read the solubility as the concentration that dissolves in the medium under given conditions. In general, AUC refers to the area under the concentration-time curve, a measure of exposure.

Description for in vivo: Clearance in Sprague-Dawley rat at 1 mg/kg, iv
Description for physchem: Solubility in FassIF at pH 6.5

For the molecule `CN(C)CCn1cc2cc(NC(=O)c3cccc(C(F)(F)F)n3)c(C(C)(C)O)cc2n1`, the AUC(0-t) at 24 h came out at 3670 ng·h/mL in series [1]; 1870 ng·h/mL in series [3]; 85.3 ng·h/mL in series [10]; 148 ng·h/mL in series [11]; 1300 ng·h/mL in series [16]; 966 ng·h/mL in [18]. Further, the area under the curve AUC(0-t) at 24 h in series [31] stood at 11900 ng·h/mL. For the same molecule, the bioavailability in series [2] worked out at 49%; in [8], 14.4%; in series [14], 67.3%. Besides, the half-life in series [4] is 210 min; in [6], 118 min; in [9] it was 384 min; in series [15] it was 43.2 min; in [19], 97.2 min; in series [21], 583 min. The molecule also gave a half-life in [30] of 198 min. The Vd in series [5] worked out at 0.67 L/kg; in series [13], 2.63 L/kg; in [17], 2.43 L/kg. Moreover, the clearance came out at 4.86 mL/min/kg in series [7], 55.6 mL/min/kg in series [12], 17.1 mL/min/kg in series [20] and 8.3 mL/min/kg in the series “in vivo”. Besides, the fraction unbound in [22] was 0.014. Besides, the Papp A→B in series [23] was found to be 27.3 ×10⁻⁶ cm/s. Besides, in series [24], the apparent permeability from basolateral to apical (Papp B→A) worked out at 22.7 ×10⁻⁶ cm/s. The CLint scaled amounted to 116 mL/min/kg in [25]; 1.96 mL/min/kg in [26]; 8.82 mL/min/kg in series [27]; 15 mL/min/kg in series [28]; 5.25 mL/min/kg in series [29]. Moreover, in [32], the Cmax came to 2110 ng/mL. Moreover, the solubility in the series “physchem” came to 92.3 µM (≈ 40.2 µg/mL).
With `COc1cc(NC(=O)c2cccc(C(F)(F)F)n2)cc2cn(CCC(C)(C)O)nc12`, in series [30], the half-life was 210 min. For the same molecule, in [31], the area under the curve AUC(0-t) at 24 h came to 34500 ng·h/mL. Also, in series [32], the concentration peaked (Cmax) at 3320 ng/mL. The clearance in “in vivo” was found to be 5.5 mL/min/kg.
In the case of `CC(C)(O)CCn1cc2cc(NC(=O)c3cccc(C(F)(F)F)n3)c(C(C)(C)O)cc2n1`, in series [33], the half-life was 216 min. The same molecule gave a bioavailability in series [34] of 84%. The molecule further yielded a Cmax in series [35] of 2310 ng/mL. The molecule also yielded an area under the curve (AUC) in series [36] of 18400 ng·h/mL. Besides, the CLint scaled in series [27] is 3.91 mL/min/kg; in series [28], 3.11 mL/min/kg; in [29], 1.28 mL/min/kg.
